Patent publication US12139520B2 (priority 2020, dated 2024)
Like-named read-outs stand apart in the source and are kept apart here. Bridge positions count the residues as written; N and C are the ends. Square brackets hold non-standard residues; d marks the D form. Peptide text beside a SMILES is read from it. Hyp = O=C(O)[C@@H]1C[C@@H](O)CN1; Cit = NC(=O)NCCC[C@H](N)C(=O)O

Tests used:
[1] = target: T1, hAMY3 receptor (Homo sapiens, UniProt O60896+P30988); assay: cAMP assay for in vitro receptor activation, hAMY3-R; type: cell-based; conditions: for EC50: read-out: hAMY3R EC50
T1 sequence (P30988 25-474): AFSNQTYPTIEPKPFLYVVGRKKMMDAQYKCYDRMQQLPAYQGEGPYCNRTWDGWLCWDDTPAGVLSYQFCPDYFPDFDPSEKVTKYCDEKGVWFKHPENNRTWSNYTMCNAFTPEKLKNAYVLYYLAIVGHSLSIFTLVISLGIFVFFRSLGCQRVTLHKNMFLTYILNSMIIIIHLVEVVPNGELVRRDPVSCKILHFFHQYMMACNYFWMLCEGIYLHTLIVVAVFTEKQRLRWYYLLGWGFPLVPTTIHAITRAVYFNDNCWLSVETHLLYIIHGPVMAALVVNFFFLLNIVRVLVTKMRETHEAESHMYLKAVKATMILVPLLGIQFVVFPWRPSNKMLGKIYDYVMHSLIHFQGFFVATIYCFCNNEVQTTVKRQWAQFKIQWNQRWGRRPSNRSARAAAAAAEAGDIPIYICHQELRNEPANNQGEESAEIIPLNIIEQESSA
T1 sequence (O60896 24-148 partner): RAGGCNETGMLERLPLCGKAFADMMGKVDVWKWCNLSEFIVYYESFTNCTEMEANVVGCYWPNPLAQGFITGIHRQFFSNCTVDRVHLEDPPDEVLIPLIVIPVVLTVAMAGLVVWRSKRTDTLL
Outline: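 Graded compound concentrations were applied for 30 min at room temperature to stably hAMY3-expressing cells in DPBS, 0.05% casein, 0.5 mM IBMX; cAMP detected by TR-FRET.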

[2] = target: hAM1 receptor (Homo sapiens, UniProt O60895+Q16602); assay: cAMP assay for in vitro receptor activation, hAM1-R; type: cell-based; conditions: for EC50: read-out: hAM1R EC50
hAM1 receptor, sequence (Q16602 23-461): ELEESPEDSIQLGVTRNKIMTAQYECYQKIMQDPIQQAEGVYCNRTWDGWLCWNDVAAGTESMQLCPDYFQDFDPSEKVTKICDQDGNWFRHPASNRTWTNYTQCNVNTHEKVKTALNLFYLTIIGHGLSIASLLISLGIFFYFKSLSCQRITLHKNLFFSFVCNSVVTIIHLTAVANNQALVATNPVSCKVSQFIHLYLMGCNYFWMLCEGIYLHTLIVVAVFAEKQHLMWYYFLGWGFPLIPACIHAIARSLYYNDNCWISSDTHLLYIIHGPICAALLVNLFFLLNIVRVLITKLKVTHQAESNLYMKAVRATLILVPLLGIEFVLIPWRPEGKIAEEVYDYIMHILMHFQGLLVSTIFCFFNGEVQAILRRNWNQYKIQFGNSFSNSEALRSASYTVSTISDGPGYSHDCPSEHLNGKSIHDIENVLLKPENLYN
hAM1 receptor, sequence (O60895 43-175 partner): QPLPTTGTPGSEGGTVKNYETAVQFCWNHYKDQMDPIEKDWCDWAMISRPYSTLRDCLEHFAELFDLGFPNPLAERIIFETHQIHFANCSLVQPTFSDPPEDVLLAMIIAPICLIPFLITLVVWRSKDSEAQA
Outline: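 A subcloned monoclonal line stably expressing hAM1 receptor is thawed and plated at 8000 cells/well. The assay buffer is DPBS with 0.05% casein and 0.5 mM IBMX, and receptor activation is followed by cAMP levels.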

[3] = Physical stability of peptide analogues (Thioflavin T fibrillation); type: physicochemical; conditions: maximum ThT signal normalized between hAMY maximum and buffer background; 40° C., shaking, four days; pH 7 per table title
Outline: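 Maximum ThT emission at 480 nm, after LOESS smoothing, is given as percent of the span from buffer background to hAMY. Conditions: 50 mM buffer at pH 4 or 7, 4 μM dye, 40 °C, repeated shaking, readings every 10 min for four days.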

| SMILES | EC50 ([1]; cAMP assay, hAMY3 receptor) | EC50 ([2]; cAMP assay, hAM1 receptor) | Max ThT signal (%) [3] | EC50 ([1]; cAMP accumulation, cells stably overexpressing hAMY3 receptor, 30 min stimulation) | improvement of potency on AMY3R compared to hAM15-52 ([1]; relative to SEQ ID NO: 1) | EC50 ([2]; cAMP accumulation, cells stably overexpressing hAM1 receptor, 30 min stimulation) | decrease of potency on AM1R compared to hAM15-52 ([2]; relative to SEQ ID NO: 1) |
| --- | --- | --- | --- | --- | --- | --- | --- |
| CC[C@H](C)[C@H](NC(=O)[C@H](CCC(N)=O)NC(=O)[C@H](Cc1c[nH]cn1)NC(=O)[C@H](C)NC(=O)[C@H](CC(C)C)NC(=O)[C@H](CCCNC(=N)N)NC(=O)[C@H](CCC(N)=O)NC(=O)[C@@H](NC(=O)[C@@H](NC(=O)[C@@H]1CSSC[C@H](NC(=O)CN)C(=O)N[C@@H](CCCNC(=N)N)C(=O)N[C@@H](Cc2ccccc2)C(=O)NCC(=O)N[C@@H]([C@@H](C)O)C(=O)N1)[C@@H](C)O)C(C)C)C(=O)N[C@@H](Cc1ccc(O)cc1)C(=O)N[C@@H](CCC(N)=O)C(=O)N[C@@H](Cc1ccccc1)C(=O)N[C@H](C(=O)N[C@@H](CC(=O)O)C(=O)N[C@@H](CCCCN)C(=O)N[C@@H](Cc1ccccc1)C(=O)N[C@@H](CCCCN)C(=O)N[C@@H](CC(=O)O)C(=O)N[C@@H](CC(N)=O)C(=O)N[C@H](C(=O)N[C@@H](C)C(=O)N1CCC[C@H]1C(=O)N[C@@H](CCCNC(=N)N)C(=O)N[C@@H](CO)C(=O)N[C@@H](CCCCN)C(=O)N[C@H](C(=O)N[C@@H](CO)C(=O)N1CCC[C@H]1C(=O)N[C@@H](CCC(N)=O)C(=O)N[C@H](C(=O)N1C[C@H](O)C[C@H]1C(N)=O)[C@@H](C)O)[C@@H](C)CC)C(C)C)[C@@H](C)O [compound 212] (H-GCRFGTCTVQRLAHQIYQFTDKFKDNVAPRSKISPQT[Hyp]-NH2; disulfide 2-7; N-terminus assumed) | 0.153 nM | > 5000 nM | 1.900% |  |  |  |  |
| CC[C@H](C)[C@H](NC(=O)[C@H](CCC(N)=O)NC(=O)[C@H](Cc1c[nH]cn1)NC(=O)[C@H](C)NC(=O)[C@H](CC(C)C)NC(=O)[C@H](CCCNC(=N)N)NC(=O)[C@H](CCC(N)=O)NC(=O)[C@@H](NC(=O)[C@@H](NC(=O)[C@@H]1CSSC[C@H](NC(=O)CN)C(=O)N[C@@H](CCCNC(=N)N)C(=O)N[C@@H](Cc2ccccc2)C(=O)NCC(=O)N[C@@H]([C@@H](C)O)C(=O)N1)[C@@H](C)O)C(C)C)C(=O)N[C@@H](Cc1ccc(O)cc1)C(=O)N[C@@H](CCC(N)=O)C(=O)N[C@@H](Cc1ccccc1)C(=O)N[C@H](C(=O)N[C@@H](CC(=O)O)C(=O)N[C@@H](CCCCN)C(=O)N[C@@H](CC(=O)O)C(=O)N[C@@H](CCCCN)C(=O)N[C@@H](CC(=O)O)C(=O)N[C@@H](CC(N)=O)C(=O)N[C@H](C(=O)N[C@@H](C)C(=O)N1CCC[C@H]1C(=O)N[C@@H](CCCNC(=N)N)C(=O)N[C@@H](CO)C(=O)N[C@@H](CCCCN)C(=O)N[C@H](C(=O)N[C@@H](CO)C(=O)N1CCC[C@H]1C(=O)N[C@@H](CCC(N)=O)C(=O)NCC(=O)N1C[C@H](O)C[C@H]1C(N)=O)[C@@H](C)CC)C(C)C)[C@@H](C)O [SEQ ID NO: 169, GCRFGTCTVQRLAHQIYQFTDKDKDNVAPRSKISPQG Hyp] (H-GCRFGTCTVQRLAHQIYQFTDKDKDNVAPRSKISPQG[Hyp]-NH2; disulfide 2-7; N-terminus assumed) |  |  | 2.700% | 0.063 nM | approximately 20 fold | 2980 nM | approximately 2500 fold |
| CC[C@H](C)[C@H](NC(=O)[C@H](CCC(N)=O)NC(=O)[C@H](Cc1c[nH]cn1)NC(=O)[C@H](C)NC(=O)[C@H](CC(C)C)NC(=O)[C@H](CCCNC(N)=O)NC(=O)[C@H](CCC(N)=O)NC(=O)[C@@H](NC(=O)[C@@H](NC(=O)[C@@H]1CSSC[C@H](NC(=O)[C@@H](N)CCCCN)C(=O)N[C@@H](CC(N)=O)C(=O)N[C@@H]([C@@H](C)O)C(=O)N[C@@H](C)C(=O)N[C@@H]([C@@H](C)O)C(=O)N1)[C@@H](C)O)C(C)C)C(=O)N[C@@H](Cc1ccc(O)cc1)C(=O)N[C@@H](CCC(N)=O)C(=O)N[C@@H](Cc1ccccc1)C(=O)N[C@H](C(=O)N[C@@H](CC(=O)O)C(=O)N[C@@H](CCCCN)C(=O)N[C@@H](CC(=O)O)C(=O)N[C@@H](C)C(=O)N[C@@H](CC(=O)O)C(=O)N[C@@H](CC(N)=O)C(=O)N[C@H](C(=O)N[C@@H](C)C(=O)N1CCC[C@H]1C(=O)N1CCC[C@H]1C(=O)N[C@H](C(=O)N[C@@H](CC(N)=O)C(=O)N[C@H](C(=O)NCC(=O)N[C@@H](CO)C(=O)N[C@@H](CC(N)=O)C(=O)NCC(=O)N1C[C@H](O)C[C@H]1C(N)=O)C(C)C)[C@@H](C)O)C(C)C)[C@@H](C)O [compound 250] (H-KCNTATCTVQ[Cit]LAHQIYQFTDKDADNVAPPTNVGSNG[Hyp]-NH2; disulfide 2-7; N-terminus assumed) | 0.011 nM | > 5000 nM | 6.400% |  |  |  |  |

Second part, the compound after the results:

| EC50 ([1]; cAMP assay, hAMY3 receptor) | EC50 ([2]; cAMP assay, hAM1 receptor) | Max ThT signal (%) [3] | EC50 ([1]; cAMP accumulation, cells stably overexpressing hAMY3 receptor, 30 min stimulation) | improvement of potency on AMY3R compared to hAM15-52 ([1]; relative to SEQ ID NO: 1) | EC50 ([2]; cAMP accumulation, cells stably overexpressing hAM1 receptor, 30 min stimulation) | decrease of potency on AM1R compared to hAM15-52 ([2]; relative to SEQ ID NO: 1) | SMILES |
| --- | --- | --- | --- | --- | --- | --- | --- |
| 0.01 nM | > 5000 nM | 6.300% |  |  |  |  | CC[C@H](C)[C@H](NC(=O)[C@H](CCC(N)=O)NC(=O)[C@H](Cc1c[nH]cn1)NC(=O)[C@H](C)NC(=O)[C@H](CC(C)C)NC(=O)[C@H](CCCNC(=N)N)NC(=O)[C@H](CCC(N)=O)NC(=O)[C@@H](NC(=O)[C@@H](NC(=O)[C@@H]1CSSC[C@H](NC(=O)[C@@H](N)CCCCN)C(=O)N[C@@H](CC(N)=O)C(=O)N[C@@H]([C@@H](C)O)C(=O)N[C@@H](C)C(=O)N[C@@H]([C@@H](C)O)C(=O)N1)[C@@H](C)O)C(C)C)C(=O)N[C@@H](Cc1ccc(O)cc1)C(=O)N[C@@H](C)C(=O)N[C@@H](Cc1ccccc1)C(=O)N[C@H](C(=O)N[C@@H](CC(=O)O)C(=O)N[C@@H](CCCCN)C(=O)N[C@@H](CC(=O)O)C(=O)N[C@@H](CCCCN)C(=O)N[C@@H](CC(=O)O)C(=O)N[C@@H](CC(N)=O)C(=O)N[C@H](C(=O)N[C@@H](C)C(=O)N1CCC[C@H]1C(=O)N1CCC[C@H]1C(=O)N[C@H](C(=O)N[C@@H](CC(N)=O)C(=O)N[C@H](C(=O)NCC(=O)N[C@@H](CO)C(=O)N[C@@H](CC(N)=O)C(=O)NCC(=O)N1C[C@H](O)C[C@H]1C(N)=O)C(C)C)[C@@H](C)O)C(C)C)[C@@H](C)O [compound 42] (H-KCNTATCTVQRLAHQIYAFTDKDKDNVAPPTNVGSNG[Hyp]-NH2; disulfide 2-7; N-terminus assumed) |
| 0.032 nM | > 5000 nM | 6.350% |  |  |  |  | CC[C@H](C)[C@H](NC(=O)[C@H](CCC(N)=O)NC(=O)[C@H](Cc1c[nH]cn1)NC(=O)[C@H](C)NC(=O)[C@H](CC(C)C)NC(=O)[C@H](Cc1c[nH]c2ccccc12)NC(=O)[C@H](CCC(N)=O)NC(=O)[C@@H](NC(=O)[C@@H](NC(=O)[C@@H]1CSSC[C@H](NC(=O)[C@@H](N)CCCCN)C(=O)N[C@@H](CC(N)=O)C(=O)N[C@@H]([C@@H](C)O)C(=O)N[C@@H](C)C(=O)N[C@@H]([C@@H](C)O)C(=O)N1)[C@@H](C)O)C(C)C)C(=O)N[C@@H](Cc1ccc(O)cc1)C(=O)N[C@@H](CCC(N)=O)C(=O)N[C@@H](Cc1ccccc1)C(=O)N[C@@H](CC(=O)O)C(=O)N[C@@H](CCCCN)C(=O)N[C@@H](CC(=O)O)C(=O)N[C@@H](CCCCN)C(=O)N[C@@H](CC(=O)O)C(=O)N[C@@H](CC(N)=O)C(=O)N[C@H](C(=O)N[C@@H](C)C(=O)N1CCC[C@H]1C(=O)N1CCC[C@H]1C(=O)N[C@H](C(=O)N[C@@H](CC(N)=O)C(=O)N[C@H](C(=O)NCC(=O)N[C@@H](CO)C(=O)N[C@@H](CC(N)=O)C(=O)NCC(=O)N1C[C@H](O)C[C@H]1C(N)=O)C(C)C)[C@@H](C)O)C(C)C [compound 329] (H-KCNTATCTVQWLAHQIYQFDKDKDNVAPPTNVGSNG[Hyp]-NH2; disulfide 2-7; N-terminus assumed) |
| 0.012 nM | > 5000 nM | 17.150% |  |  |  |  | CC[C@H](C)[C@H](NC(=O)[C@H](CCC(N)=O)NC(=O)[C@H](Cc1c[nH]cn1)NC(=O)[C@H](C)NC(=O)[C@H](CC(C)C)NC(=O)[C@H](Cc1c[nH]c2ccccc12)NC(=O)[C@H](CCC(N)=O)NC(=O)[C@@H](NC(=O)[C@@H](NC(=O)[C@@H]1CSSC[C@H](NC(=O)[C@@H](N)CCCCN)C(=O)N[C@@H](CC(N)=O)C(=O)N[C@@H]([C@@H](C)O)C(=O)N[C@@H](C)C(=O)N[C@@H]([C@@H](C)O)C(=O)N1)[C@@H](C)O)C(C)C)C(=O)N[C@@H](Cc1ccc(O)cc1)C(=O)N[C@@H](CCC(N)=O)C(=O)N[C@@H](Cc1ccccc1)C(=O)N[C@H](C(=O)N[C@@H](CC(=O)O)C(=O)N[C@@H](CCCCN)C(=O)N[C@@H](CC(=O)O)C(=O)N[C@@H](CCCCN)C(=O)N[C@@H](CC(=O)O)C(=O)N[C@@H](CC(N)=O)C(=O)N[C@@H](C)C(=O)N[C@@H](C)C(=O)N1CCC[C@H]1C(=O)N1CCC[C@H]1C(=O)N[C@H](C(=O)N[C@@H](CC(N)=O)C(=O)N[C@H](C(=O)NCC(=O)N[C@@H](CO)C(=O)N[C@@H](CC(N)=O)C(=O)NCC(=O)N1C[C@H](O)C[C@H]1C(N)=O)C(C)C)[C@@H](C)O)[C@@H](C)O [compound 315] (H-KCNTATCTVQWLAHQIYQFTDKDKDNAAPPTNVGSNG[Hyp]-NH2; disulfide 2-7; N-terminus assumed) |
